pIC50: −log10 of the molar value.
Tests used:
Type in all cases: biochemical
DYRK1A = DYRK1A (Homo sapiens, UniProt Q13627); experiment: Determination of IC50 values against DYRK1a; conditions: average of duplicate; 10 concentrations 100 μM to 0.003 μM; read-out: IC 50 against DYRK1a
Procedure: The kinase assay was carried out using Multidrop 384's at room temperature in a total assay volume of 25.5 μl. To plates containing 0.5 μl of compounds, DMSO controls or acid blanks, 15 μl of an enzyme mix containing the DYRK1a enzyme and peptide/protein substrate in buffer was added. Compounds were pre-incubated in the presence of the enzyme and peptide/protein substrate for 5 minutes before initiation of the reaction by addition of 10 μl of ATP (final concentration selected for each kinase at 5, 20 or 50 μM). Assays were carried out for 30 minutes at room temperature before termination by the addition of 5 μl orthophosphoric acid. The assay plates were then harvested onto P81 Unifilter Plates by a Packard Harvester (wash buffer is 50 mM orthophosphoric acid) and dried in air. The dry Unifilter plates were then sealed by the addition of MicroScint O and counted in Packard Topcount NXT scintillation counters.

p38a MAPK = p38a MAPK (Homo sapiens, UniProt Q16539); experiment: Kinase profiling p38a MAPK; conditions: 100 micromolar inhibitor concentration; 100 is no change
Excerpt: (§1) Any value less that 25 is considered to be highly significant inhibition.

RSK1 = RSK1 (Homo sapiens, UniProt Q15418); experiment: Kinase profiling RSK1; conditions: 100 micromolar inhibitor concentration; 100 is no change
Excerpt: as §1

PRK2 = PRK2 (Homo sapiens, UniProt Q16513); experiment: Kinase profiling PRK2; conditions: 100 micromolar inhibitor concentration; 100 is no change
Excerpt: as §1

JNK1 = JNK1 (Homo sapiens, UniProt P45983); experiment: Kinase profiling JNK1; conditions: 100 micromolar inhibitor concentration; 100 is no change
Excerpt: as §1

PKCa = PKCa (Homo sapiens, UniProt P17252); experiment: Kinase profiling PKCa; conditions: 100 micromolar inhibitor concentration; 100 is no change
Excerpt: as §1

MKK1 = MKK1 (Homo sapiens, UniProt Q02750); experiment: Kinase profiling MKK1; conditions: 100 micromolar inhibitor concentration; 100 is no change
Excerpt: as §1

SGK1 = target: T1, SGK1 (Homo sapiens, UniProt O00141); experiment: Kinase profiling SGK1; conditions: 100 micromolar inhibitor concentration; 100 is no change
T1 sequence (O00141 1-431): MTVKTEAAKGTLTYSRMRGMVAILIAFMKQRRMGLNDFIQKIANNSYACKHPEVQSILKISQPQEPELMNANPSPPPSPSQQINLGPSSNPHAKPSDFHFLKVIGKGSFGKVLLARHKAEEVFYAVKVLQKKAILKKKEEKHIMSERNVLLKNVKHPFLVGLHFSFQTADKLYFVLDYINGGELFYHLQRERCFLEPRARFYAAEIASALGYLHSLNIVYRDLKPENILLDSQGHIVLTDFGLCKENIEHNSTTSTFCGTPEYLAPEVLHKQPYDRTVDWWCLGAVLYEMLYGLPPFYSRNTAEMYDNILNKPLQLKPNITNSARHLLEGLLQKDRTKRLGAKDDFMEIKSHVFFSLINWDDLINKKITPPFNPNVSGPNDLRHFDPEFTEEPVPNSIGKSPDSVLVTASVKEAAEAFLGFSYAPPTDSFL
Excerpt: as §1

PDK1 = target: T2, PDK1 (Homo sapiens, UniProt O15530); experiment: Kinase profiling PDK1; conditions: 100 micromolar inhibitor concentration; 100 is no change
T2 sequence (O15530 1-556): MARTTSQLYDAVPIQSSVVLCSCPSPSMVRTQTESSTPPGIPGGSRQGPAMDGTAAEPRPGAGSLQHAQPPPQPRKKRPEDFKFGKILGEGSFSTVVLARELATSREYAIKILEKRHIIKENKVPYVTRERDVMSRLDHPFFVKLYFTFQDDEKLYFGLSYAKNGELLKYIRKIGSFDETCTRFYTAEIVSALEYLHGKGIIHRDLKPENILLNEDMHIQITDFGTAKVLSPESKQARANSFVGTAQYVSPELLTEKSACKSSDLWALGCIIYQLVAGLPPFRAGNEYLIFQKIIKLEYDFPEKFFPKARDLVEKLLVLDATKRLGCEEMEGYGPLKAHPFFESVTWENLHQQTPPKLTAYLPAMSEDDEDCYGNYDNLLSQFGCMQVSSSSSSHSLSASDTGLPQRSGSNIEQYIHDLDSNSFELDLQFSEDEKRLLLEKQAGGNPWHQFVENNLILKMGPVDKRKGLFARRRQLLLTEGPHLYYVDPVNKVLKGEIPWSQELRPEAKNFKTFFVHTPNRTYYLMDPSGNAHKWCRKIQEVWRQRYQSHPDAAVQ
Excerpt: as §1

S6K1 = S6K1 (Homo sapiens, UniProt P23443); experiment: Kinase profiling S6K1; conditions: 100 micromolar inhibitor concentration; 100 is no change
Excerpt: as §1

PKA = PKA (Homo sapiens, UniProt P17612); experiment: Kinase profiling PKA; conditions: 100 micromolar inhibitor concentration; 100 is no change
Excerpt: as §1

PKBa = PKBa (Homo sapiens, UniProt P31749); experiment: Kinase profiling PKBa; conditions: 100 micromolar inhibitor concentration; 100 is no change
Excerpt: as §1

ROCK 2 = ROCK 2 (Homo sapiens, UniProt O75116); experiment: Kinase profiling ROCK 2; conditions: 100 micromolar inhibitor concentration; 100 is no change
Excerpt: as §1

PKD1 = target: T3, PKD1 (Homo sapiens, UniProt Q15139); experiment: Kinase profiling PKD1; conditions: 100 micromolar inhibitor concentration; 100 is no change
T3 sequence (Q15139 1-912): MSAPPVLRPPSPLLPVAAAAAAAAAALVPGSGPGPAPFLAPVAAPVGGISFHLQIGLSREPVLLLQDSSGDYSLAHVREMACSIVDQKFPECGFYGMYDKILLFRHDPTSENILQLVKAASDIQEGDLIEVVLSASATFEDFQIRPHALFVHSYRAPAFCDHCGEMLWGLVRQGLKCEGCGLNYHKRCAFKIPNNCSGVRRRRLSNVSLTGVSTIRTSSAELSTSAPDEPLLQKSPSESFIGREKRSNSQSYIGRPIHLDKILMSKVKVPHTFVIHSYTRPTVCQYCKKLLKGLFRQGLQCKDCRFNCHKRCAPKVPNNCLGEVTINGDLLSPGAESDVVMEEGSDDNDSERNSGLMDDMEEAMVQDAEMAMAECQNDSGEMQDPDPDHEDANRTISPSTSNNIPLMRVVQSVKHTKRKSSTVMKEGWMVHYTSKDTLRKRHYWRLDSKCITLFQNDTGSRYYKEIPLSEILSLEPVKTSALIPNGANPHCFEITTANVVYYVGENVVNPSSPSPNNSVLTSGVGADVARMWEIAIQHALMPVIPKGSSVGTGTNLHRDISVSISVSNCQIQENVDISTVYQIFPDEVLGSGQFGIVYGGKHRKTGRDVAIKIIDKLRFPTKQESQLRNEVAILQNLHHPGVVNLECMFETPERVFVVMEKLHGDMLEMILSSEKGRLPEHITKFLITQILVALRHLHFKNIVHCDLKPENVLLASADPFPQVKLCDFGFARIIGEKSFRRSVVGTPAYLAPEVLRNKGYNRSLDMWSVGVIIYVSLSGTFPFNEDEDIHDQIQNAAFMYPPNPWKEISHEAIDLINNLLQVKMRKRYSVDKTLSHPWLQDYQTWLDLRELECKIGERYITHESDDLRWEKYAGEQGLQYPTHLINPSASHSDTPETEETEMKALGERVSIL
Excerpt: as §1

Sequence of S6K1 (P23443 whole entry, species assumed): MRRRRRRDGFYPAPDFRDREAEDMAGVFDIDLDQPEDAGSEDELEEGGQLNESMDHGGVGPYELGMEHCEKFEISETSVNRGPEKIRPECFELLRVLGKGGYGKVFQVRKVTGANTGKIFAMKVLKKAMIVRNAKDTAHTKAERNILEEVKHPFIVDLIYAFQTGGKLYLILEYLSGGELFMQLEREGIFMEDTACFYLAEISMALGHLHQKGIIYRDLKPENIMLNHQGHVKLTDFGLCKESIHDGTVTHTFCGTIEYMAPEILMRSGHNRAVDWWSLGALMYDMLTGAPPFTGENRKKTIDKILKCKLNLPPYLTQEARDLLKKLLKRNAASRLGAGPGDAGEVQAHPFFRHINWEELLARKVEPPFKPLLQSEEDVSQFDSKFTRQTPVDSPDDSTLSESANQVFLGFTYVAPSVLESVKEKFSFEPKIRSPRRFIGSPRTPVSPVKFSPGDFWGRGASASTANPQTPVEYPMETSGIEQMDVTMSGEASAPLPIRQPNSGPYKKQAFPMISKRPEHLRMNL
Sequence of JNK1 (P45983 whole entry, species assumed): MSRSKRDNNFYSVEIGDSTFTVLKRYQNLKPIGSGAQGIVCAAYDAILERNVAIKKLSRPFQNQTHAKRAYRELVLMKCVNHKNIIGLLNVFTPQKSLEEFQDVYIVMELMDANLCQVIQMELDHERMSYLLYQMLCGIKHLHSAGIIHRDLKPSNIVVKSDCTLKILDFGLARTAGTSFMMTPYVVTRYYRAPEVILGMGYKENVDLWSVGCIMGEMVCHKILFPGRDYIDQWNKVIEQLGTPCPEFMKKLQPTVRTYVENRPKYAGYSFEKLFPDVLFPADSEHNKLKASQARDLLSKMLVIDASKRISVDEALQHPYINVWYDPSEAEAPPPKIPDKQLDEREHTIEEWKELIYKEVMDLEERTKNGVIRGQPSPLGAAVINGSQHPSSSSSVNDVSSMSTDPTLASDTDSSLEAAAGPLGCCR
Sequence of p38a MAPK (Q16539 whole entry): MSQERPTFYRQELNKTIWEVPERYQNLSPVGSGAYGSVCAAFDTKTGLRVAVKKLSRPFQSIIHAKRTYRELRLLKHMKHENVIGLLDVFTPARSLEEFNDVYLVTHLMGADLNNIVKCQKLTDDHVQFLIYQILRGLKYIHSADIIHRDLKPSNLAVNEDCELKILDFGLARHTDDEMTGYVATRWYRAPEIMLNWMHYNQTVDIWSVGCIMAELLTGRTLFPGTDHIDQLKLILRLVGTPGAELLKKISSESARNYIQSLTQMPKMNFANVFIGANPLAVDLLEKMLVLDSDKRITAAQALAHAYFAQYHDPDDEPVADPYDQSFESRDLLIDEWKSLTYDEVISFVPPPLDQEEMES
Sequence of ROCK 2 (O75116 whole entry, species assumed): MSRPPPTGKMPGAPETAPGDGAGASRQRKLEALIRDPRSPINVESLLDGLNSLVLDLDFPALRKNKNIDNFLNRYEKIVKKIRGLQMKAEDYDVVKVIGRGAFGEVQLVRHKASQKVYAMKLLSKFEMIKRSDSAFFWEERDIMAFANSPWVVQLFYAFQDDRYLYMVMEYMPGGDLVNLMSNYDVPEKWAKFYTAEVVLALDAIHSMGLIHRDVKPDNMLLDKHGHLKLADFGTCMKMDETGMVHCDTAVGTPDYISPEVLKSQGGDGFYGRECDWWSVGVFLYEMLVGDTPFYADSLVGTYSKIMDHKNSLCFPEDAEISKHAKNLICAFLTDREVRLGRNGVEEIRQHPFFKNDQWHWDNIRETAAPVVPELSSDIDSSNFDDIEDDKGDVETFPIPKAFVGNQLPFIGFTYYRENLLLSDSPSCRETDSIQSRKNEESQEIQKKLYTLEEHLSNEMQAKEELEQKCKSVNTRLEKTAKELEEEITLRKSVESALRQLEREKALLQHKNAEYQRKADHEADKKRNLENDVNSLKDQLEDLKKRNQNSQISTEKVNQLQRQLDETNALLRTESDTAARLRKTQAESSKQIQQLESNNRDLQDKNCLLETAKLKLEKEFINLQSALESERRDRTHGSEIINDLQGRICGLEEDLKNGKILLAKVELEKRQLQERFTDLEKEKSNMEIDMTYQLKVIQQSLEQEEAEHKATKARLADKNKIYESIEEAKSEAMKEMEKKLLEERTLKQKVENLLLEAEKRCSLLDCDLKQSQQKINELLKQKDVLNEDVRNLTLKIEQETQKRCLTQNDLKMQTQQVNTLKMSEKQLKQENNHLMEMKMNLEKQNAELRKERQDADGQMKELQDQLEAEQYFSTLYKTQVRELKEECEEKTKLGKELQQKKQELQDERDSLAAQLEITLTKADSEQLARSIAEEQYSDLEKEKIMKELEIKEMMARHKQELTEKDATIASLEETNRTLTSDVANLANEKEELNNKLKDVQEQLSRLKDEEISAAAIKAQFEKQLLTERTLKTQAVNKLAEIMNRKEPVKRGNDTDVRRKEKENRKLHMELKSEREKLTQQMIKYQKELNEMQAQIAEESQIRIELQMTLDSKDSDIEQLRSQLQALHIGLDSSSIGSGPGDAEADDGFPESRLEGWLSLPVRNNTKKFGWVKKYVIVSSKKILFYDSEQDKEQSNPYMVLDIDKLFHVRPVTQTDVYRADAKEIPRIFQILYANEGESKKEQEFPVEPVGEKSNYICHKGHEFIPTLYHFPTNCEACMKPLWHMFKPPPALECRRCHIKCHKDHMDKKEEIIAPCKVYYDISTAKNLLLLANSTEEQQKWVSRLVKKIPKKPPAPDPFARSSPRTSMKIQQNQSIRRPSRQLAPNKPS
Sequence of PKBa (P31749 whole entry): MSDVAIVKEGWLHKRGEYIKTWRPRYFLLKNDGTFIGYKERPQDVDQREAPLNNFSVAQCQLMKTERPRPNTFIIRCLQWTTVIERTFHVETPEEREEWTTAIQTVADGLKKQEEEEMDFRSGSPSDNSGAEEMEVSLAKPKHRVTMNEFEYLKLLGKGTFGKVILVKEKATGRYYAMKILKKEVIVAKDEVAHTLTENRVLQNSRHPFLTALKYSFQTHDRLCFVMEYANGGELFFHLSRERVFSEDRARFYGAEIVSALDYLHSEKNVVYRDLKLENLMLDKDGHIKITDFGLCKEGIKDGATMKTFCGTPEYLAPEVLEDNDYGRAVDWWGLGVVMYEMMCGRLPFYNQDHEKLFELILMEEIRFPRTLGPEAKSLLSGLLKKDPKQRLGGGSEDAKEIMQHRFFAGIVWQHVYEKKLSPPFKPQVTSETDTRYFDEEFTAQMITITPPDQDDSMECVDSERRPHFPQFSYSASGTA
Sequence of RSK1 (Q15418 whole entry, species assumed): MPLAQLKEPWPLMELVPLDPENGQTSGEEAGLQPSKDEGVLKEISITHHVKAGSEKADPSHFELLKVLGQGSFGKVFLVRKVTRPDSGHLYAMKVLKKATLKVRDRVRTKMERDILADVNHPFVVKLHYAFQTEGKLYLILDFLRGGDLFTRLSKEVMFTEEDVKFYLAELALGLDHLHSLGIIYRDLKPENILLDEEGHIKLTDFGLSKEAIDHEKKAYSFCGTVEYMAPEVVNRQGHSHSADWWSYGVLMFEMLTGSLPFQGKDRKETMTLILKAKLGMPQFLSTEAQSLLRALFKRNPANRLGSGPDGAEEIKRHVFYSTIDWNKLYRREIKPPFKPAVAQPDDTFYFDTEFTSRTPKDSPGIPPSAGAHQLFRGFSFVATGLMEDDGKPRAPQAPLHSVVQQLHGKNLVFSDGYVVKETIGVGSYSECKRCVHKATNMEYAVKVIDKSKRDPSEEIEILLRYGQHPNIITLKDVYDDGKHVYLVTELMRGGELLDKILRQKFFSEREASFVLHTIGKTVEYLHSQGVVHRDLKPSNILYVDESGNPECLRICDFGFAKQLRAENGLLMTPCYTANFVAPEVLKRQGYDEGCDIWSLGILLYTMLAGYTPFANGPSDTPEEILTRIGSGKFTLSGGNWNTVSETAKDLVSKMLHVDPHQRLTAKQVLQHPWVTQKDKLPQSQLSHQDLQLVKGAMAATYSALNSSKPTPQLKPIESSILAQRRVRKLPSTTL
Sequence of MKK1 (Q02750 whole entry, species assumed): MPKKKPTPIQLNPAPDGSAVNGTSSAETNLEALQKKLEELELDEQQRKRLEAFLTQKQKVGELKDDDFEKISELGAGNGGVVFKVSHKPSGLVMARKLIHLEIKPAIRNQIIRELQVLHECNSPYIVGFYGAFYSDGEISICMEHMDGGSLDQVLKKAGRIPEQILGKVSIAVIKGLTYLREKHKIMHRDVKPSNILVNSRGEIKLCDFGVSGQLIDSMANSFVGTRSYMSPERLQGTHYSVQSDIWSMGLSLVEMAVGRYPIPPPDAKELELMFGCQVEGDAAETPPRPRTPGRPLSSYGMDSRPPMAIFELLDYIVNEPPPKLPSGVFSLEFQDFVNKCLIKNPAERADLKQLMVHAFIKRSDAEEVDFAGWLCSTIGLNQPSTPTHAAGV

| pIC50 (DYRK1A) | residual kinase activity, p38a MAPK (p38a MAPK) | residual kinase activity, RSK1 (RSK1) | residual kinase activity, PRK2 (PRK2) | residual kinase activity, JNK1 (JNK1) | residual kinase activity, PKCa (PKCa) | residual kinase activity, MKK1 (MKK1) | residual kinase activity, SGK1 (SGK1) | residual kinase activity, PDK1 (PDK1) | residual kinase activity, S6K1 (S6K1) | residual kinase activity, PKA (PKA) | residual kinase activity, PKBa (PKBa) | residual kinase activity, ROCK 2 (ROCK 2) | residual kinase activity, PKD1 (PKD1) | Compound |
| --- | --- | --- | --- | --- | --- | --- | --- | --- | --- | --- | --- | --- | --- | --- |
| 4.91 | – | – | – | – | – | – | – | – | – | – | – | – | – | COc1ccc2nc(NC(C)=O)sc2c1 [Compound 03-20] |
| – | 106 | 19 | 54 | 80 | 92 | 35 | 59 | 93 | 29 | 90 | 87 | 32 | 53 | CC(=O)Nc1ccc(C(=O)Nc2nc3ccc(O)cc3s2)cc1 [Compound 03-74] |
| 4.80 | – | – | – | – | – | – | – | – | – | – | – | – | – | CC(=O)Nc1nc2ccc(C(N)=O)cc2s1 [Compound 08-70] |

Reference: patent US10231954B2, “Neurodegenerative therapies” (LYTIX BIOPHARMA AS, priority 2014, dated 2019)
